According to patent US11312804B2, “Polymerizable compound, polymerizable composition, polymer, and photoresist composition” (JNC CORPORATION, priority 2018, dated 2022):

Assay: Water solubility test: extraction from water into ethyl acetate, weight of residue
Assay type: physicochemical
Details: for weight of the residue: 0.500 g dissolved in 10 mL water at room temperature, 10 mL ethyl acetate added, stirred 10 min, organic layer dried and concentrated
Method: In 10 mL of water, 0.500 g of the compound represented by formula (14a-x) was dissolved at room temperature, and 10 mL of ethyl acetate was added thereto, and the resulting mixture was stirred for 10 min, and then the organic layer was dried over anhydrous sodium sulfate. The desiccant was filtered off, and then the filtrate was concentrated under reduced pressure. The weight of the residue was 0.101 g.
In 10 mL of water, 0.500 g of a compound represented by formula (15), namely, mevalonolactone was dissolved at room temperature, and 10 mL of ethyl acetate was added thereto, and the resulting mixture was stirred for 10 min, and then the organic layer was dried over anhydrous sodium sulfate. The desiccant was filtered off, and then the filtrate was concentrated under reduced pressure. Then weight of the residue was 0.080 g.

| weight of the residue [g] | water solubility compared with the compound used in Comparative Example 1 (conclusion from ethyl acetate extraction test) | Structure (SMILES) |
| --- | --- | --- |
| 0.101 | lower water solubility | C[C@H]1C(=O)OCC[C@@]1(C)O [Compound 14a-x, α-methyl-mevalonolactone] |
| 0.080 | – | CC1(O)CCOC(=O)C1 (stereo not drawn) [Compound 15, mevalonolactone, reference compound] |
